Source: paper PMC3476531, “Synergy of Peptide and Sugar in O-GlcNAcase Substrate Recognition” (Chemistry & Biology, 2012)
Numbering of substitutions follows the chain as printed.

Tests used:
Format in all cases: biochemical
hOGA Y69S = target: T1, hOGA Y69S (Homo sapiens, UniProt O60502, Y69S); experiment: hOGA Y69S mutant glycopeptide hydrolysis, substrate competition assay; conditions: hOGA point mutant Y69S; competition with 4MU-GlcNAc; 37°C, pH 7.4; triplicate; read-out: Michaelis constant (KM) for hOGA Y69S
T1 construct: GST (N); made in house; host or cells: transiently transfected HEK293 cells
T1 sequence (O60502 1-916 Y69S): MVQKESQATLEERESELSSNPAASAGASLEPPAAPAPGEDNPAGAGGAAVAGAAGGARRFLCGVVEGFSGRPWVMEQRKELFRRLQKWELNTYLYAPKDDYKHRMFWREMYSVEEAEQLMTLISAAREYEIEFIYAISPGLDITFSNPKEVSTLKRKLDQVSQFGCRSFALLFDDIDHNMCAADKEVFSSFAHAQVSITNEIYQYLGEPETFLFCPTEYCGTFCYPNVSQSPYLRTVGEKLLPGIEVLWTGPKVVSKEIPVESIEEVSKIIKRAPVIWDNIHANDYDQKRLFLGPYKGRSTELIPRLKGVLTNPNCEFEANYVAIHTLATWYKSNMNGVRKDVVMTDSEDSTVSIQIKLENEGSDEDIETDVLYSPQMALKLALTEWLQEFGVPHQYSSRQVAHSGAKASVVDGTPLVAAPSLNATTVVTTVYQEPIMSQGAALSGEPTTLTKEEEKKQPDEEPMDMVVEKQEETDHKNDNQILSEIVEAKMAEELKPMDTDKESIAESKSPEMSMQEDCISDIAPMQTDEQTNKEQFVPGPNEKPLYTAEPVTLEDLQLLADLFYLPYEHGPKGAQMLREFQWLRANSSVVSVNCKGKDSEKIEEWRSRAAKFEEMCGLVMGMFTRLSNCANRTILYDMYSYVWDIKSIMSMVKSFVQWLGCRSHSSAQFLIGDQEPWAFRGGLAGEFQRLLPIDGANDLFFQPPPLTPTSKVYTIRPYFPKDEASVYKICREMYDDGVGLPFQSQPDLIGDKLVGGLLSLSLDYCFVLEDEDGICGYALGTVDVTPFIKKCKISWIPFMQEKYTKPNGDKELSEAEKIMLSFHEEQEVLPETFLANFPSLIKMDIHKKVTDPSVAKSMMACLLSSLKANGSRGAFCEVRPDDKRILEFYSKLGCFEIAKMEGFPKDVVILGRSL

hOGA Y69Q = target: T2, hOGA Y69Q (Homo sapiens, UniProt O60502, Y69Q); experiment: hOGA Y69Q mutant glycopeptide hydrolysis, substrate competition assay; conditions: hOGA point mutant Y69Q; competition with 4MU-GlcNAc; 37°C, pH 7.4; triplicate; read-out: Michaelis constant (KM) for hOGA Y69Q
T2 construct: GST (N); made in house; host or cells: transiently transfected HEK293 cells
T2 sequence (O60502 1-916 Y69Q): T1 sequence (O60502 1-916 Y69S) with S69Q

hOGA Y69K = target: T3, hOGA Y69K (Homo sapiens, UniProt O60502, Y69K); experiment: hOGA Y69K mutant glycopeptide hydrolysis, substrate competition assay; conditions: hOGA point mutant Y69K; competition with 4MU-GlcNAc; 37°C, pH 7.4; triplicate; read-out: Michaelis constant (KM) for hOGA Y69K
T3 construct: GST (N); made in house; host or cells: transiently transfected HEK293 cells
T3 sequence (O60502 1-916 Y69K): T1 sequence (O60502 1-916 Y69S) with S69K

PVSVPYS(O-GlcNAc)SAQSTS [TAB1 (Ser395) 13, 13-residue O-GlcNAc glycopeptide derived from TAB1 Ser395 site]
Km (hOGA Y69S): > 4 mM | Km (hOGA Y69Q): 3.6 mM | Km (hOGA Y69K): > 4 mM

VAHS(O-GlcNAc)GAK [hOGA (Ser405) 7, 7-residue O-GlcNAc glycopeptide derived from hOGA Ser405 site]
Km (hOGA Y69S): > 4 mM | Km (hOGA Y69Q): > 4 mM | Km (hOGA Y69K): > 4 mM

p53 (Ser149) 11: 11-residue O-GlcNAc glycopeptide derived from p53 Ser149 site
Km (hOGA Y69S): 0.29 ± 0.02 mM | Km (hOGA Y69Q): 0.17 ± 0.04 mM | Km (hOGA Y69K): 0.35 ± 0.02 mM
